Consider 22 compounds from patent US20240400555A1 (Initial Therapeutics, Inc., priority 2023, published 2024).

For this assay, the system named is HCT-116 Firefly-luciferase reporter cells. The experiment in a line: Cellular c-MYC Reporter Assay. In kind it is cell-based. The settings on record: Homo sapiens; untitled table following Table 8a; HCT-116 Firefly-luciferase reporter cells, 24 h; read-out: pIC50 (converted). The protocol:
HCT-116 Firefly-luciferase reporter cells (BPS Bioscience) were seeded in 96-well tissue-culture treated sterile plates (Greiner Bio-One) at 5e4 cells/mL in 100 μL complete growth media (McCoy's 5A+10% FBS, +1% Pen-Strep, +1% G418). Cells were incubated at 37° C. with 5% CO2 for 4-6 h then treated with 3× compound solution in 50 μL complete growth media for a final volume of 150 μL per well with 0.2% DMSO. After 24 h incubation at 37° C. with 5% CO2, plates were allowed to equilibrate to RT for 20 min then developed by addition of 100 μL ONE-Glo Luciferase detection reagent (Promega), incubated at RT for 10 min. Luminescence was recorded using a SpectraMax i3x plate reader (Molecular Devices) and analyzed using Prism GraphPad 9 software.
(In general: In a reporter assay the amount or activity of a reporter protein is the signal.)
Regarding `O=C(c1ccc(-n2nnc3cccnc32)cc1F)N(c1ncccc1C1=CCNC1)[C@@H]1CCCNC1` [Example 113, (R)-4-(3H-[1,2,3]triazolo[4,5-b]pyridin-3-yl)-N-(3-(2,5-dihydro-1H-pyrrol-3-yl)pyridin-2-yl)-2-fluoro-N-(piperidin-3-yl)benzamide], the IC50 is 4270 nM.

`O=C(c1ccc(-n2nnc3cccnc32)cc1F)N(c1ncccc1-c1cnoc1)[C@@H]1CCCNC1` [Example 114, (R)-4-(3H-[1,2,3]triazolo[4,5-b]pyridin-3-yl)-2-fluoro-N-(3-(isoxazol-4-yl)pyridin-2-yl)-N-(piperidin-3-yl)benzamide]: the IC50 was 1120 nM.

`Cn1cc(-c2cccnc2N(C(=O)c2ccc(-n3nnc4cccnc43)cc2F)[C@@H]2CCCNC2)cn1` [Example 115, (R)-4-(3H-[1,2,3]triazolo[4,5-b]pyridin-3-yl)-2-fluoro-N-(3-(1-methyl-1H-pyrazol-4-yl)pyridin-2-yl)-N-(piperidin-3-yl)benzamide]: the IC50 is 550 nM.

Consider `O=C(c1ccc(-n2nnc3cccnc32)cc1F)N(c1ncccc1-c1cnn(CCO)c1)[C@@H]1CCCNC1` [Example 116, (R)-4-(3H-[1,2,3]triazolo[4,5-b]pyridin-3-yl)-2-fluoro-N-(3-(1-(2-hydroxyethyl)-1H-pyrazol-4-yl)pyridin-2-yl)-N-(piperidin-3-yl)benzamide], for which the IC50 was 2570 nM.

Turning to `COC(=O)c1ccc2c(N(C(=O)c3ccc(-n4nnc5cccnc54)cc3F)[C@@H]3CCCNC3)nccc2c1` [Example 117, methyl (R)-1-(4-(3H-[1,2,3]triazolo[4,5-b]pyridin-3-yl)-2-fluoro-N-(piperidin-3-yl)benzamido)isoquinoline-6-carboxylate], the IC50 was 490 nM.

For `O=C(O)c1ccc2c(N(C(=O)c3ccc(-n4nnc5cccnc54)cc3F)[C@@H]3CCCNC3)nccc2c1` [Example 118, (R)-1-(4-(3H-[1,2,3]triazolo[4,5-b]pyridin-3-yl)-2-fluoro-N-(piperidin-3-yl)benzamido)isoquinoline-6-carboxylic acid], the IC50 is more than 20000 nM.

For the compound `Cn1ncc2ccnc(N(C(=O)c3ccc(Nc4ncccn4)cc3F)[C@@H]3CCCNC3)c21` [Example 119, (R)-2-fluoro-N-(1-methyl-1H-pyrazolo[3,4-c]pyridin-7-yl)-N-(piperidin-3-yl)-4-(pyrimidin-2-ylamino)benzamide], the IC50 is 1410 nM.

For the compound `Cc1csc2ccnc(N(C(=O)c3ccc(-n4nnc5cccnc54)cc3F)[C@@H]3CCCNC3)c12` [Example 121, 2-fluoro-N-(3-methylthieno[3,2-c]pyridin-4-yl)-N-[(3R)-3-piperidyl]-4-(triazolo[4,5-b]pyridin-3-yl)benzamide], the IC50 is 38 nM.

Consider `O=C(c1ccc(-n2nnc3cccnc32)cc1F)N(c1nccc2scc(Br)c12)[C@@H]1CCCNC1` [Example 122, (R)-4-(3H-[1,2,3]triazolo[4,5-b]pyridin-3-yl)-N-(3-bromothieno[3,2-c]pyridin-4-yl)-2-fluoro-N-(piperidin-3-yl)benzamide], for which the IC50 is 123 nM.

On to `Cc1cccc2ccnc(N(C(=O)c3ccc(-c4n[nH]c5c4CCCC5)cc3F)[C@@H]3CCCNC3)c12` [Example 123, (R)-2-fluoro-N-(8-methylisoquinolin-1-yl)-N-(piperidin-3-yl)-4-(4,5,6,7-tetrahydro-1H-indazol-3-yl) benzamide], for which the IC50 was 5010 nM.

Turning to `Cc1cccc2ccnc(N(C(=O)c3ccc(N)cc3F)[C@@H]3CCCNC3)c12` [Example 124, (R)-4-amino-2-fluoro-N-(8-methylisoquinolin-1-yl)-N-(piperidin-3-yl) benzamide], the IC50 was 3890 nM.

On to `Cc1cccc2ccnc(N(C(=O)c3ccc(-c4nnn(C)n4)cc3F)[C@@H]3CCCNC3)c12` [Example 125, (R)-2-fluoro-4-(2-methyl-2H-tetrazol-5-yl)-N-(8-methylisoquinolin-1-yl)-N-(piperidin-3-yl) benzamide], for which the IC50 was 24.5 nM.

Take `Cc1cccc2ccnc(N(C(=O)c3ccc(-c4cnn(C)c4-c4ccccc4)cc3F)[C@@H]3CCCNC3)c12` [Example 126, (R)-2-fluoro-4-(1-methyl-5-phenyl-1H-pyrazol-4-yl)-N-(8-methylisoquinolin-1-yl)-N-(piperidin-3-yl) benzamide]: the IC50 is 355 nM.

Take `Cc1nnc(-c2ccc(C(=O)N(c3nccc4cccc(C)c34)[C@@H]3CCCNC3)c(F)c2)s1` [Example 127, (R)-2-fluoro-4-(5-methyl-1,3,4-thiadiazol-2-yl)-N-(8-methylisoquinolin-1-yl)-N-(piperidin-3-yl) benzamide]: the IC50 is 339 nM.

Take `Cc1cccc2ccnc(N(C(=O)c3ccc(-c4nnn[nH]4)cc3)[C@H]3CCCNC3)c12` [Example 128, (S)—N-(8-methylisoquinolin-1-yl)-N-(piperidin-3-yl)-4-(1H-tetrazol-5-yl)benzamide]: the IC50 is more than 10000 nM.

Turning to `COC(=O)c1ccc2ccnc(N(C(=O)c3ccc(-n4nnc5cccnc54)cc3F)[C@@H]3CCCNC3)c2c1` [Example 129, methyl (R)-1-(4-(3H-[1,2,3]triazolo[4,5-b]pyridin-3-yl)-2-fluoro-N-(piperidin-3-yl)benzamido)isoquinoline-7-carboxylate], the IC50 is 339 nM.

As for `CCOC(=O)/C=C/c1ccc2ccnc(N(C(=O)c3ccc(-n4nnc5cccnc54)cc3F)[C@@H]3CCCNC3)c2c1` [Example 130, ethyl (R,E)-3-(1-(4-(3H-[1,2,3]triazolo[4,5-b]pyridin-3-yl)-2-fluoro-N-(piperidin-3-yl)benzamido)isoquinolin-7-yl)acrylate], the IC50 was 2290 nM.

On to `Cc1cccc2ccnc(N(C(=O)c3ccc(Nc4cccn(C)c4=O)cc3F)[C@@H]3CCCNC3)c12` [Example 131, (R)-2-fluoro-4-((1-methyl-2-oxo-1,2-dihydropyridin-3-yl)amino)-N-(8-methylisoquinolin-1-yl)-N-(piperidin-3-yl)benzamide], for which the IC50 was 1910 nM.

Turning to `Cc1cccc2ccnc(N(C(=O)c3ccc(Nc4ccc[nH]c4=O)cc3F)[C@@H]3CCCNC3)c12` [Example 132, (R)-2-fluoro-N-(8-methylisoquinolin-1-yl)-4-((2-oxo-1,2-dihydropyridin-3-yl)amino)-N-(piperidin-3-yl)benzamide], the IC50 is 1580 nM.

Take `Cc1cccc2ccnc(N(C(=O)c3ccc(Oc4ncccn4)cc3F)[C@@H]3CCCNC3)c12` [Example 133, 2-fluoro-N-(8-methyl-1-isoquinolyl)-N-(3-piperidyl)-4-pyrimidin-2-yloxy-benzamide]: the IC50 is 269 nM.

Turning to `O=C(c1ccc(-n2nnc3cccnc32)cc1F)N(c1nccc2ccc(CCCO)cc12)[C@@H]1CCCNC1` [Example 134, (R)-4-(3H-[1,2,3]triazolo[4,5-b]pyridin-3-yl)-2-fluoro-N-(7-(3 hydroxypropyl)isoquinolin-1-yl)-N-(piperidin-3-yl)benzamide], the IC50 is 575 nM.

For the compound `O=C(c1ccc(-n2nnc3cccnc32)cc1F)N(c1nccc2ccc(/C=C/CO)cc12)[C@@H]1CCCNC1` [Example 135, (R)-4-(3H-[1,2,3]triazolo[4,5-b]pyridin-3-yl)-2-fluoro-N-(7-(3-hydroxyprop-1-en-1-yl)isoquinolin-1-yl)-N-(piperidin-3-yl)benzamide], the IC50 was 575 nM.
